Laboratory results from patent US20230144855A1, “METHODS AND COMPOSITIONS FOR INDUCING FETAL HEMOGLOBIN” (Flagship Pioneering Innovations VI, LLC, priority 2021, published 2023).
Entries after “also recorded” stand apart in the source; their conditions may differ.

Key:
Type in all cases: cell-based, human
[1] = system: CD34+ hematopoietic stem and progenitor cells (HSPCs); assay: Percentage HbF by HPLC / ion-exchange chromatography in in vitro derived erythrocytes; details: Day 14; HU 50 μM, Perturbagen 1081 0.1 μM; n=4-5
Procedure: (§1) Briefly, mobilized peripheral blood (mPB), or bone marrow (BM) derived CD34+ hematopoietic stem and progenitor cells (HSPCs) were thawed and cultured in Hematopoietic stem cell expansion media (Table 7) from Day −4 to Day 0 following by 3-stage in vitro erythroid differentiation (Table 8). Specifically, cells were cultured in erythroid expansion media (phase 1) from Day 0-6, followed by differentiation media (phase 2) between Day 7-10, and culminating with incubation in erythroid maturation media (phase 3) from Day 10-18. Perturbagens reconstituted in DMSO (or appropriate solvent) were added starting at day −2 (corresponding to a stage of CD34+ hematopoietic progenitors). […] As part of the analysis, the expansion (fold growth), viability, and erythroid maturation was measured throughout the course of differentiation. Early erythroid induction was determined by flow cytometry using a six-antibody panel (CD34, CD38, CD36, CD71, CD41, CD235a) (Table 9). Similarly, late erythroid maturation was determined by flow cytometry using a four-antibody panel (Table 10) (CD71, CD235a, CD233, CD49d) tracking increased CD233 expression, with a concomitant loss of CD49d expression, and a shift in CD71^Hi to CD71^low erythroid population (CD235a+) over 18 days (FIG. 2). […]

[2] = system: CD34+ HSPCs; assay: Flow cytometry of the CD34+/CD41Low+/CD235a+ cell state; details: HU 50 uM, day 3 mPB CD34+
Procedure: Therefore, in this example, CD34+ HSPCs are cultured 4 days in stem cell maintenance media (days −4 through 0) then switched to the three phases of erythroid differentiation media. Phase 1, erythroid expansion media (days 0 through 6), Phase 2 erythroid differentiation media (days 7 through 10) and Phase 3 erythroid maturation media (days 10 through 18).

[3] = system: CD34+ hematopoietic stem and progenitor cells (HSPCs); assay: Flow cytometry assay of percentage of HbF expressing cells (F-cells) after in vitro erythroid differentiation
Procedure: as §1

[4] = system: mPB CD34+ cells; assay: scRNA-seq of CD34+ cells treated with HbF inducers (trajectories, gene signatures); details: for Pseudo-trajectory associated with high levels of HBG1/HBG2 expression: Leiden clustering / gene module analysis of HbF inducers
Procedure: To understand the mechanism/cell behavior driving fetal hemoglobin induction, a number of known HbF inducers were evaluated and their signature was elucidated by scRNA-seq. In brief, mPB CD34+ cells were thawed, cultured and treated with selected HbF inducers (Table 11) as described in Example 2 and subjected to single cell gene expression profiling (GEP) at 5 time points capturing the induction of erythroid differentiation from a hematopoietic stem cell progenitor. For sequencing, 10,000 cells (1000 cells/perturbation) were loaded into a single channel of a Chromium Next GEM Chip G and partitioned into droplets with gel beads using a Chromium controller per time point. After emulsion droplets were formed and collected, reverse transcription reactions were incubated at 53° C. for 45 min.
A dimensionality-reduced representation of the count matrix was embedded using UMAP, clustered using Leiden clustering and annotated using differential expression testing (Wilcoxon test) and comparisons to established marker genes. […] Based on these two trajectories, distinct signatures were generated for each transition and a list predictions were made towards each cell state.
Based on the unique/novel cell state (CD34+/CD41^Low+/CD235a+) induced by HU treatment of human hematopoietic stem cell progenitors Applicant postulated that this cell state was reminiscent/analogous to a stress erythropoiesis cell state previously defined in mice but not well characterized in human. […] To evaluate whether HU was inducing a stress erythropoiesis cells state and whether this cell state was responsive to glucocorticoids, the effect of dexamethasone (Dex) was evaluated in the context of HU treatment.
Perturbagen 1081 induced predicted gene signature associated with fetal hemoglobin induction. […] Adult human CD34+ progenitors were treated with Perturbagen 1081 and other known HbF inducers and subjected to scRNA-seq. […] Analysis of Perturbagen 1081 induced gene signature validated the fetal erythropoiesis signature predicted using a computational predictive models (FIG. 16C).

NC(=O)NO [HU, hydroxyurea]
HbF induced, HPLC analysis of in vitro derived erythrocytes [1]: 17.16%+4.78
CD34+/CD41Low+/CD235a+ cell state [2]: a novel cell state defined by CD34+/CD41^Low+/CD235a+(FIG. 6A) was observed; also recorded: emergence of a cell population defined by CD34+CD41lowCD235a+ expression
Number of F-cells with HU treatment ([3]; HU 50 uM on CD34+ HSPCs before erythroid differentiation): increased number of F-cells
Pseudo-trajectory associated with high levels of HBG1/HBG2 expression [4]: HU-HbF trajectory
Expression of the glucocorticoid receptor (NR3C1) ([4]; scRNA-seq of HU and HU+Dex conditions): increases the expression of the glucocorticoid receptor (NR3C1); also recorded: induction of NR3C1

Cc1ccc2c(NC[C@](O)(CC(C)(C)c3cc(F)cc4c3OCC4)C(F)(F)F)cccc2n1 [Mapracorat]
F-cell data, glucocorticoid agonist combined with HU (absolute change, fold change) ([3]; combination with HU): synergy with HU

Nc1cccc2c1C(=O)N(C1CCC(=O)NC1=O)C2=O (stereo not shown) [Pomalidomine]
Pseudo-trajectory associated with high levels of HBG1/HBG2 expression [4]: canonical-HbF trajectory
